Entries after “also recorded” stand apart in the source; their conditions may differ.

One data set concerns GDNF mRNA. Put plainly: Induction of GDNF mRNA expression in primates. Type of data set: in vivo, monkey. The protocol:
(§1) Twelve monkeys, ranging in weight from 2.0 Kg to 4.7 Kg, were divided into three groups of 4 animals each: the vehicle group (i.e., control), group dosed with 10 μg/kg/day, and group dosed with 30 μg/kg/clay. The monkeys were dosed orally for 8 days with Compound (A) and were sacrificed 5 hours after the last dosing. Brain regions were dissected and quick frozen. The dissected septi were divided into 3 preparations and two of the three regions of septum were analyzed. Total RNA was prepared and reverse transcribed and gene expression was assessed using polymerase chain reaction by the following procedure.
(§2) Total RNA was prepared by homogenizing sections of tissue in 750 μl RNAzolB™ (Biotecx Laboratories, Houston, Tex.) using a homogenizer (Tekmar, Germany) until fully homogenized and then 250 μl RNAzilB™ was added. RNA was prepared as recommended by the manufacturer (Biotecx Laboratories). […] Concentration of RNA was measured spectrophotometrically and the quality of RNA was visualized on a nondenaturing agarose gel. […]
(§3) An average of 4 PCR assays (two assays for each gene for two cDNA sets) were used in determining the induction of mRNA expression. To assure that PCR assays were within the linear range of the reaction, the linear range for each gene and each cDNA preparation was determined using serial dilutions of cDNAs. […]

For data set [1], the system named is acrylamide-induced peripheral neuropathy in rats. Put plainly: Acrylamide-induced peripheral neuropathy, landing foot spread. Format: in vivo, rat. The protocol:
Peripheral neuropathy was induced in rats by the administration of the neurotoxin acrylamide, 50 mg/kg, IP, 3×/week. The acrylamide treatment occurred during the first three weeks of the experiment. After acrylamide was discontinued, the animals were allowed to recover for an additional 3-5 weeks. The ability of Compound (A) or Compound (B) to either slow the onset of peripheral neuropathy, reduce the severity of the peripheral neuropathy or enhance the recovery from peripheral neuropathy was determined. The compounds were administered either orally (Compound (A)) or via subcutaneous Alzet mini-pumps (I month model)(Compounds (A) and (B)) beginning 3 days prior to the first dose of acrylamide. Compound (A) was administered orally at doses of 0.3, 1.0 and 3.0 μg/kg/day and by mini-pump at doses of 10, 55, 100, 330 and 550 ng/day. Compound (B) was administered by mini-pump at doses of 10, 33, 100, 330 and 1000 ng/day. These dose ranges were selected to limit toxicity and to bracket the dose range used in fimbria fornix lesion experiments. The mini-pumps were replaced at the end of the fourth week so that the test compound was on board for the duration of the experiment. In FIG. 11B, the data from FIG. 11A was averaged.

The subject of another data set is NGF mRNA. Put plainly: Induction of NGF mRNA expression in primates. Type of data set: in vivo, monkey. The protocol:
as §1, §2, §3

Data set [2] can be described thus: Serum calcium in primates. Type of data set: in vivo, monkey. The conditions noted are these: 10 and 30 μg/kg/day oral, 8 days.
The nature of data set [3]: Serum calcium in fimbria fornix lesioned rats. Format: in vivo, Sprague Dawley rats. The conditions noted are these: oral gavage daily 14 days; data not shown. The protocol: For the fimbria fornix lesion studies, serum calcium was determined by the following method. Sprague Dawley rats (200-300 g) were dosed as described below. Blood was collected from the animals after sacrifice and allowed to clot at room temperature for 3-10 minutes; cells were pelleted in a clinical centrifuge.
(§4) The hippocampal ChAT activity is expressed as a percentage of the hippocampal ChAT activity of the […] control side (i.e., lesion control) in FIGS. 4 to 8.

For a further data set, the system named is hippocampal ChAT. The data set is described as follows: Fimbria fornix lesion model, hippocampal ChAT activity. Type of data set: in vivo, rat. Conditions: oral gavage daily 14 days, FIGS. 4 to 8; * p<0.05 vs vehicle-treated lesioned controls.
From the text: The fimbria fornix lesion model is an established protocol for assessing cholinergic neuronal survival in the basal forebrain. […] Contained within the region of the brain 10 are cholinergic neurons 16. A healthy cholinergic neuron has a cell body 18, and one or more axons 20. Each of the axons 20 have a free end, referred to as a terminal 22, that extends into the hippocampus 14. In the fimbria fornix lesion model, damaged cholinergic neurons 24 are produced by transecting a portion of the axons 20 at a location 26 between the hippocampus 14 and the cell body 18. As a result of this transection, damaged cell bodies 28 are produced that no longer have cholinergic axons 30 and terminals 32. These damaged cell bodies 28, also lose cholinergic cell body markers 34 and stop producing ChAT. The fimbria fornix lesion model is used to study methods of restoring ChAT production, such as through stimulating increased production of ChAT in the healthy cholinergic neurons, and/or through restoring normal functioning of the damaged cholinergic neurons 24.
For the studies described herein, animals were anesthetized with pentobarbital and placed in a stereotaxic apparatus. The skull was opened on the left side, a knife was positioned 1.2 mm posterior to bregma and 0.6 mm lateral to the midline. The knife was lowered to 4.5 mm below the dura into the brain and moved laterally 2 mm partially transecting the fimbria fornix. After 14 days of administration of the test compounds by oral gavage, the hippocampus was removed and homogenized.
as §4

On to `C=C1/C(=C\C=C2/CCC[C@]3(C)[C@@H]([C@@H](C)[C@@H](C#CCC(O)(CC)CC)OCC)CC[C@@H]23)C[C@@H](O)C[C@@H]1O` [Compound (A), 1(S),3(R)-dihydroxy-20(R)-(1-ethoxy-5-ethyl-5-hydroxy-2-heptyn-1-yl)-9,10-seco-pregna-5(Z),7(E),10(19)-triene], for which, in the data set on GDNF mRNA (10 and 30 μg/kg/day oral, 8 days, primate septum (FIG. 14B)), the “production of GDNF mRNA” value was “facilitated the production of NGF mRNA and GDNF mRNA”. The “dosage of greatest GDNF mRNA production” value with GDNF mRNA (10 vs 30 μg/kg/day oral) was “greatest at a dosage of 10 μg/kg/day”. Further, the “development of peripheral neuropathy” value in data set [1] (continuously pumped (mini-pump)) was “did not prevent the development of the acrylamide-induced peripheral neuropathy”; in data set [1] (oral), “prevented the development of acrylamide-induced peripheral neuropathy”. Further, the “recovery from peripheral neuropathy” value in data set [1] (mini-pump) was “improved recovery; also recorded: an effect upon the recovery from the lesion was apparent”. The landing foot spread result in data set [1] (mini-pump, recovery period) was “effective in reducing landing foot spread, but only during the recovery period; also recorded: decreased landing foot spread during the recovery period”; in data set [1] (oral 3.0 μg/kg/day), “statistically significant decrease in landing foot spread”; in data set [1] (oral, FIGS. 11A-11C legend), “decreases landing foot spread”. For the same compound, in data set [1] (oral), the “severity of neuropathy and functional recovery” value is “dose-dependent effects on both the severity of the acrylamide-induced peripheral neuropathy as well as the ability of the animals to functionally recover from the lesion”. Besides, the “time course of decrease in landing foot spread” value in data set [1] (oral 3.0 μg/kg/day, onset days 1-24, recovery days 24-42) is “occurred during the onset of the lesion (days 1-24) and were sustained through the recovery phase”. In the data set on NGF mRNA (10 and 30 μg/kg/day oral, 8 days, primate septum (FIG. 14A)), the “production of NGF mRNA” value was “facilitated the production of NGF mRNA”. Further, the “dosage of greatest NGF mRNA production” value with NGF mRNA (10 vs 30 μg/kg/day oral) was “greatest at a dosage of 10 μg/kg/day”. For the same compound, the serum calcium levels entry in data set [2] is “did not increase serum calcium levels and were not hypercalcemic doses”. Moreover, in data set [3], the “serum calcium at doses giving the ChAT results” value is given as “low calcemic dose levels”. The “hippocampal ChAT activity vs lesioned controls” value in the data set with hippocampal ChAT is recorded as “significant increase in CHAT activity”.
